Source: ChEMBL document CHEMBL4325871 (Eur J Med Chem, 2019)
pIC50: −log10 of the molar value. One block for each compound: values may come before it.

Tests used:
Tau-tubulin kinase 1 [1] = target: T1, Tau-tubulin kinase 1 (Homo sapiens, UniProt Q5TCY1)
[2] = target: Mitogen-activated protein kinase 11 (Homo sapiens) (UniProt Q15759); experiment: Inhibition of human p38beta assessed as residual activity at 100 uM using MBP as substrate by [gamma-33P]-ATP assay relative to control
[3] = target: Tau-tubulin kinase 2 (Homo sapiens) (UniProt Q6IQ55); experiment: Inhibition of human TTBK2 assessed as residual activity at 100 uM using MBP as substrate by [gamma-33P]-ATP assay relative to control
Tau-tubulin kinase 1 [4] = target: T1, Tau-tubulin kinase 1; experiment: Inhibition of human TTBK1 assessed as residual activity at 100 uM using MBP as substrate by [gamma-33P]-ATP assay relative to control
[5] = target: T2, Serine/threonine-protein kinase Nek7 (Homo sapiens, UniProt Q8TDX7)
[6] = target: T3, Serine/threonine-protein kinase Nek6 (Homo sapiens, UniProt Q9HC98)
[7] = target: T2, Serine/threonine-protein kinase Nek7; experiment: Inhibition of human NEK7 assessed as residual activity at 100 uM using casein as substrate by [gamma-33P]-ATP assay relative to control
[8] = target: T3, Serine/threonine-protein kinase Nek6; experiment: Inhibition of human NEK6 assessed as residual activity at 100 uM using casein as substrate by [gamma-33P]-ATP assay relative to control
[9] = target: T4, Serine/threonine-protein kinase WNK3 (Homo sapiens, UniProt Q9BYP7); experiment: Inhibition of human WNK3 assessed as residual activity at 100 uM using MBP as substrate by [gamma-33P]-ATP assay relative to control
[10] = target: Wee1-like protein kinase (Homo sapiens) (UniProt P30291); experiment: Inhibition of human WEE1 assessed as residual activity at 100 uM using MBP as substrate by [gamma-33P]-ATP assay relative to control
[11] = target: T4, Serine/threonine-protein kinase WNK3
[12] = target: T5, Mitogen-activated protein kinase kinase kinase kinase 1 (Homo sapiens, UniProt Q92918); experiment: Inhibition of human HPK1 assessed as residual activity at 100 uM using MBP as substrate by [gamma-33P]-ATP assay relative to control
[13] = target: Serine/threonine-protein kinase VRK1 (Homo sapiens, UniProt Q99986)
[14] = target: T6, Serine/threonine-protein kinase VRK2 (Homo sapiens, UniProt Q86Y07); experiment: Inhibition of human VRK2 assessed as residual activity at 100 uM using casein as substrate by [gamma-33P]-ATP assay relative to control
[15] = target: T6, Serine/threonine-protein kinase VRK2
[16] = target: T7, Homeodomain-interacting protein kinase 1 (Homo sapiens, UniProt Q86Z02)
[17] = target: T8, Mitogen-activated protein kinase kinase kinase 8 (Homo sapiens, UniProt P41279); experiment: Inhibition of human COT1 assessed as residual activity at 100 uM using MEK1 as substrate by [gamma-33P]-ATP assay relative to control
[18] = target: T5, Mitogen-activated protein kinase kinase kinase kinase 1
[19] = target: T8, Mitogen-activated protein kinase kinase kinase 8
[20] = target: T7, Homeodomain-interacting protein kinase 1; experiment: Inhibition of human HIPK1 assessed as residual activity at 100 uM using MBP as substrate by [gamma-33P]-ATP assay relative to control
[21] = target: Dual specificity tyrosine-phosphorylation-regulated kinase 4 (Homo sapiens, UniProt Q9NR20)
[22] = target: Dual specificity tyrosine-phosphorylation-regulated kinase 4 (Homo sapiens) (UniProt Q9NR20); experiment: Inhibition of human DYRK4 assessed as residual activity at 100 uM using RRRFRPASPLRGPPK as substrate by [gamma-33P]-ATP assay relative to control
[23] = target: T9, Receptor-interacting serine/threonine-protein kinase 3 (Homo sapiens, UniProt Q9Y572)
[24] = target: T10, Mitogen-activated protein kinase kinase kinase 20 (Homo sapiens, UniProt Q9NYL2)
[25] = target: T9, Receptor-interacting serine/threonine-protein kinase 3; experiment: Inhibition of human RIPK3 assessed as residual activity at 100 uM using MBP as substrate by [gamma-33P]-ATP assay relative to control
[26] = target: T10, Mitogen-activated protein kinase kinase kinase 20; experiment: Inhibition of human ZAK assessed as residual activity at 100 uM using MBP as substrate by [gamma-33P]-ATP assay relative to control
[27] = target: T11, Casein kinase II subunit alpha (Homo sapiens, UniProt P68400)
[28] = target: T12, Serine/threonine-protein kinase A-Raf (Homo sapiens) (UniProt P10398); experiment: Inhibition of human ARAF assessed as residual activity at 100 uM using MEK1 as substrate by [gamma-33P]-ATP assay relative to control
T12 sequence (whole entry): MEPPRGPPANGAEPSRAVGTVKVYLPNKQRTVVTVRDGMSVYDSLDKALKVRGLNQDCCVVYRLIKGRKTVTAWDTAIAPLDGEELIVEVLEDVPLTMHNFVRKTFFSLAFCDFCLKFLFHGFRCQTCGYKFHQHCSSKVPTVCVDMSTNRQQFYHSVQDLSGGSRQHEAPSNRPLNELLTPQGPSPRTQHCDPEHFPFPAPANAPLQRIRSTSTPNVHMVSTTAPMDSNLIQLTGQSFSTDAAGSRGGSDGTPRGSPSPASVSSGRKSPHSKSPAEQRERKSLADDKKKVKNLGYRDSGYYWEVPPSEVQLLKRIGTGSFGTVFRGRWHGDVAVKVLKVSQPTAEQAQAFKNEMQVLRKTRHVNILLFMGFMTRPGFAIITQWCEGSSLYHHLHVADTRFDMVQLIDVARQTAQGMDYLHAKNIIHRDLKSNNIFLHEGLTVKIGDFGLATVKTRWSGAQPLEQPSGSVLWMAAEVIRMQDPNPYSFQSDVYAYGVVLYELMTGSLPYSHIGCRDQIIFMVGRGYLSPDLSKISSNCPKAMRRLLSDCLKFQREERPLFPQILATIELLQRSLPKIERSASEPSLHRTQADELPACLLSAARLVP

[29] = target: Serine/threonine-protein kinase A-Raf (Homo sapiens, UniProt P10398)
[30] = target: T11, Casein kinase II subunit alpha; experiment: Inhibition of human CK2A assessed as residual activity at 100 uM using RRRDDDSDDD as substrate by [gamma-33P]-ATP assay relative to control
[31] = target: Tyrosine-protein kinase JAK3 (Homo sapiens) (UniProt P52333); experiment: Inhibition of human JAK3 assessed as residual activity at 100 uM using poly[Glu:Tyr] (4:1) as substrate by [gamma-33P]-ATP assay relative to control
TGF-beta receptor type-2 [32] = target: T13, TGF-beta receptor type-2 (Homo sapiens, UniProt P37173); experiment: Inhibition of human TGFBR2 assessed as residual activity at 100 uM using MBP as substrate by [gamma-33P]-ATP assay relative to control
[33] = target: Activin receptor type-1B (Homo sapiens) (UniProt P36896); experiment: Inhibition of human ALK4 assessed as residual activity at 100 uM using casein as substrate by [gamma-33P]-ATP assay relative to control
[34] = target: Bone morphogenetic protein receptor type-1B (Homo sapiens) (UniProt O00238); experiment: Inhibition of human ALK6 assessed as residual activity at 100 uM using casein as substrate by [gamma-33P]-ATP assay relative to control
[35] = target: Bone morphogenetic protein receptor type-1A (Homo sapiens) (UniProt P36894); experiment: Inhibition of human ALK3 assessed as residual activity at 100 uM using casein as substrate by [gamma-33P]-ATP assay relative to control
TGF-beta receptor type-2 [36] = target: T13, TGF-beta receptor type-2
[37] = target: Activin receptor type-1-like (Homo sapiens) (UniProt P37023); experiment: Inhibition of human ALK1 assessed as residual activity at 100 uM using casein as substrate by [gamma-33P]-ATP assay relative to control

T6 sequence (Q86Y07 whole entry): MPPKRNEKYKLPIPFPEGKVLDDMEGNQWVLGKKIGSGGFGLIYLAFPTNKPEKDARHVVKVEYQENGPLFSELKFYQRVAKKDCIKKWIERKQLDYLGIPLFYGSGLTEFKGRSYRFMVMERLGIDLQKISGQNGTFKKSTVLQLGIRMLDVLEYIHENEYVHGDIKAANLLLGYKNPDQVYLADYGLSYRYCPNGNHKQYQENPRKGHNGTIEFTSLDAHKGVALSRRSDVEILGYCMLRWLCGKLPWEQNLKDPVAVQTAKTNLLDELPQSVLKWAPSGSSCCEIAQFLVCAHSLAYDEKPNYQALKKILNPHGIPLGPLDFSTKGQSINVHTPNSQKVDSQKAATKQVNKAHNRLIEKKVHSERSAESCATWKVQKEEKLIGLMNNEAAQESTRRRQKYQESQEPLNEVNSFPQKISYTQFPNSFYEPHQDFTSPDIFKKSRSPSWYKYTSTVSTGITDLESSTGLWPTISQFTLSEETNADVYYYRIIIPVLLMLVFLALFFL
T8 sequence (P41279 whole entry): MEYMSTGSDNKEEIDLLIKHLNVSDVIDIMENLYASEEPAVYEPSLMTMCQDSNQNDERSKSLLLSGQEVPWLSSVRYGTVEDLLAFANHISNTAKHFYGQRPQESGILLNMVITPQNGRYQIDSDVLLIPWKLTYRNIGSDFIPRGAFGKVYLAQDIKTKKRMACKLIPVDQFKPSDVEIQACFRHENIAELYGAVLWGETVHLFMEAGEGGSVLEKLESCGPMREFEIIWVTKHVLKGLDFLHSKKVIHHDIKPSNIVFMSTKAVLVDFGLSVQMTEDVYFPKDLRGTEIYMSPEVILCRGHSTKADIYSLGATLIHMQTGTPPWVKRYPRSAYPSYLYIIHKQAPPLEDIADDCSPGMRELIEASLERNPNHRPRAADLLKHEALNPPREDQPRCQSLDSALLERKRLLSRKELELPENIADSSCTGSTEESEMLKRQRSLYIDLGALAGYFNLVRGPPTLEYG
T3 sequence (Q9HC98 whole entry): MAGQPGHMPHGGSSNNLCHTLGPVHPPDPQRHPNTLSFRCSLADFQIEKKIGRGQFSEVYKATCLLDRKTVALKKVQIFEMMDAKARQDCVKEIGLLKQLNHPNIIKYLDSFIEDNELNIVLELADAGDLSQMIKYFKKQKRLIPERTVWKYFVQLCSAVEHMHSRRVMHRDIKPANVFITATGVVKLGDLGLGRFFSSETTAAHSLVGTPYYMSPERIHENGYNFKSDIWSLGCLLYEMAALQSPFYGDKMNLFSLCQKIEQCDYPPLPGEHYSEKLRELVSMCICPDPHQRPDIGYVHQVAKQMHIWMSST
T13 sequence (P37173 whole entry): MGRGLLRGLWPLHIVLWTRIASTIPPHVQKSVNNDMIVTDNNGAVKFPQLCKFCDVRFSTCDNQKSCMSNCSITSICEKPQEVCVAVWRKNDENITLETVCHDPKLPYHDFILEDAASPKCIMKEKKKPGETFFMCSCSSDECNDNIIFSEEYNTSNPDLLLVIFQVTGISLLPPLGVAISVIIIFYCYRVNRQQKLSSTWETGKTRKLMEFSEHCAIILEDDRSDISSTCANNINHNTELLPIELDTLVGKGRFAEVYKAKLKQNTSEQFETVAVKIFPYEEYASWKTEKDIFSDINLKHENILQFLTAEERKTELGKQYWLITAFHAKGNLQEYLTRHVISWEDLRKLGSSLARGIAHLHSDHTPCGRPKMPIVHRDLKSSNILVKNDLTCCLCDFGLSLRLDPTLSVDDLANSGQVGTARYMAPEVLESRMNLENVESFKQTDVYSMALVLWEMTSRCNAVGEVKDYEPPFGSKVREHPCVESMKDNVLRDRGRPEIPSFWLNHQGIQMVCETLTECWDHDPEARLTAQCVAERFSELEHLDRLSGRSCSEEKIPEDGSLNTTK
T4 sequence (Q9BYP7 whole entry): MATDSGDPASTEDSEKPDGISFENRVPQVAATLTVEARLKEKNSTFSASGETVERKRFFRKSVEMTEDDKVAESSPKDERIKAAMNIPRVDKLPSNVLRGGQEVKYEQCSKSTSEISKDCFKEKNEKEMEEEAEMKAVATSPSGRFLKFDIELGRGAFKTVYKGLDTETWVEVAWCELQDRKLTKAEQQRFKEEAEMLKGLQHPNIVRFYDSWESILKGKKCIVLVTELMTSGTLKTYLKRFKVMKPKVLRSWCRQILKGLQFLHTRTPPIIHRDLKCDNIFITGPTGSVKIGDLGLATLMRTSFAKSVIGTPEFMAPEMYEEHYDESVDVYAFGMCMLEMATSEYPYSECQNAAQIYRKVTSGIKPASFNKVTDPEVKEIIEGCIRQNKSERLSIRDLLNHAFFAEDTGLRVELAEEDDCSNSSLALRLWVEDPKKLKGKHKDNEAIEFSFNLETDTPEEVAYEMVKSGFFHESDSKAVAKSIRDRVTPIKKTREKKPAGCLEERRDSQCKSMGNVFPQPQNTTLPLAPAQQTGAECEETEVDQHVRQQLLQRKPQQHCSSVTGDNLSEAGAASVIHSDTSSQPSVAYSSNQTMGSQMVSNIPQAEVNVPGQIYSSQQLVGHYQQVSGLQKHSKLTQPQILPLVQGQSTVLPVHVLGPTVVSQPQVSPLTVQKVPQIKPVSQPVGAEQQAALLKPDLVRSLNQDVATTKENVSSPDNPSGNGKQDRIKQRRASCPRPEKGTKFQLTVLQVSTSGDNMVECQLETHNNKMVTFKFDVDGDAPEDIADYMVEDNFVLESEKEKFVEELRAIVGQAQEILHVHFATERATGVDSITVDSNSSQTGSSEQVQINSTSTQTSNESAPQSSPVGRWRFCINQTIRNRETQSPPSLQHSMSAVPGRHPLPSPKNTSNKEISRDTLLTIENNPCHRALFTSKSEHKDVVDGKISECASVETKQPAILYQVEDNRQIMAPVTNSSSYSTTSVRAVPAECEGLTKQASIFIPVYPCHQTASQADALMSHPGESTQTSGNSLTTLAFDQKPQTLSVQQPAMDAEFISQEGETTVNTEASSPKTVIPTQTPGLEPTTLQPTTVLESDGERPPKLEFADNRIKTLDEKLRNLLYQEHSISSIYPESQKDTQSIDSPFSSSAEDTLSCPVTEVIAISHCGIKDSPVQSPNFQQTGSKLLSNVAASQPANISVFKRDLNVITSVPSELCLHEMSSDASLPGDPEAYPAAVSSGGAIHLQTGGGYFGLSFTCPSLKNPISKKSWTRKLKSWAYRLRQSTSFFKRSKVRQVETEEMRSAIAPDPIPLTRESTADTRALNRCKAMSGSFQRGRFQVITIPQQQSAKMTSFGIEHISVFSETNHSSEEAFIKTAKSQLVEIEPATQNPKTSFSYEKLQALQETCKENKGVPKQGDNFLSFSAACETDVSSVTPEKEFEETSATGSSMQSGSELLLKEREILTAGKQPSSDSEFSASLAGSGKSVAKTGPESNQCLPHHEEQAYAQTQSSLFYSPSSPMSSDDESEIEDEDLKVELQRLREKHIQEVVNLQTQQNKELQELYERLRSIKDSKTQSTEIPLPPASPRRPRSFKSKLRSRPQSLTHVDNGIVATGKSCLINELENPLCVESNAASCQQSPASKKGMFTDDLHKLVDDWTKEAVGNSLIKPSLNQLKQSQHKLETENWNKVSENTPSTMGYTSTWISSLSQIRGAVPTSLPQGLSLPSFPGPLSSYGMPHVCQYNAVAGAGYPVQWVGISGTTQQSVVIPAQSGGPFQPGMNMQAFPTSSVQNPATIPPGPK
T1 sequence (Q5TCY1 whole entry): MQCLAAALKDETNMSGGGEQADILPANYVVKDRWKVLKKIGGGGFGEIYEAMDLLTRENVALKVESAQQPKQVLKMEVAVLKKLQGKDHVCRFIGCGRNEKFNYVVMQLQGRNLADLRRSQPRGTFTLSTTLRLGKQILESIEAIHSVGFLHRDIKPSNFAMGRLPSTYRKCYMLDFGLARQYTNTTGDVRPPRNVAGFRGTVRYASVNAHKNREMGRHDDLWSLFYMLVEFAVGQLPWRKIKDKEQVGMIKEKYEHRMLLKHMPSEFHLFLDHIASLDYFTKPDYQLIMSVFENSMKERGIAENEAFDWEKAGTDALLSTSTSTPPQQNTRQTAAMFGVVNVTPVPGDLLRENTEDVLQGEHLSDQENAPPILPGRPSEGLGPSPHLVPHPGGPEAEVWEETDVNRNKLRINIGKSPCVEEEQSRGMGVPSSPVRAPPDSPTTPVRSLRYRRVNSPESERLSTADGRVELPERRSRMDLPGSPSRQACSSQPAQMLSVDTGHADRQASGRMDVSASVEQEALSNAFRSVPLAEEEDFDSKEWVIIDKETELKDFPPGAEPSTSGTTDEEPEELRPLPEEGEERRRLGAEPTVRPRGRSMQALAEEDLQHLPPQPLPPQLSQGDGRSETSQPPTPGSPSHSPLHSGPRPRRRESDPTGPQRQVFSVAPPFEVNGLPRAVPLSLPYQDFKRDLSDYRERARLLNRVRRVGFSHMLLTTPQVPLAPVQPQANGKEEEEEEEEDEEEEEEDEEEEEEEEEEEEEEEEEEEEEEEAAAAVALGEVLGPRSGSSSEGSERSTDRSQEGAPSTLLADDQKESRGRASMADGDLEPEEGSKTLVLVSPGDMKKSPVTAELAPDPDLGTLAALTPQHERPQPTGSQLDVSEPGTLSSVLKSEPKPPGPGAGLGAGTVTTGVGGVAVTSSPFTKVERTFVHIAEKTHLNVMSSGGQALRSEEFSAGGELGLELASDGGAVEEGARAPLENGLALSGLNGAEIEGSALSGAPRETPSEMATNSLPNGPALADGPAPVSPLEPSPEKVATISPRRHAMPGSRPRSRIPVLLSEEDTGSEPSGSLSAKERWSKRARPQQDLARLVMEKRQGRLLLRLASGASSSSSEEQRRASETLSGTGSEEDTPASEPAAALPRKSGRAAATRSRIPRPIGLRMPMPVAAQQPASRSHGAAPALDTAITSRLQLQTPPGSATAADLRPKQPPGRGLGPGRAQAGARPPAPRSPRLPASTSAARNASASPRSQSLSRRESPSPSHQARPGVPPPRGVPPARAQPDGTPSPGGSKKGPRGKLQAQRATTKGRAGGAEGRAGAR

Structure (SMILES): Oc1ccc(-c2nc(-c3ccncc3)c(-c3ccc(F)cc3)[nH]2)cc1 [SB-202190]
pIC50 (Tau-tubulin kinase 1 [1]): 4.33

Structure (SMILES): Oc1ccc(-c2nc(-c3ccc(F)cc3)c(-c3ccncc3)[nH]2)cc1
Activity [2]: < 65%
Activity [3]: < 65%
Activity (Tau-tubulin kinase 1 [4]): < 65%

Structure (SMILES): O=C1Nc2ccc3ncsc3c2/C1=C/c1c[nH]cn1
pIC50 [5]: 5.14
pIC50 [6]: 4.22
Activity [7]: < 65%
Activity [8]: < 65%

Structure (SMILES): O=C1Nc2ccc(I)cc2C1=Cc1cc(Br)c(O)c(Br)c1 [GW305074X]
pIC50 [21]: 5.36
Activity [22]: < 65%
pIC50 [23]: 5.27
pIC50 [24]: 5.72
Activity [25]: < 65%
Activity [26]: < 65%
pIC50 [27]: 6.55
Activity [28]: < 65%
pIC50 [29]: 7.84
Activity [30]: < 65%

Structure (SMILES): CCOc1nc(NC(=O)Cc2cc(OC)ccc2OC)cc(N)c1C#N
Activity [31]: < 65%

Other lines, results leading:

Activity [9]: < 65%
Activity [10]: < 65%
pIC50 [11]: 5.64
Structure (SMILES): C=CCn1c(=O)c2cnc(Nc3ccc(N4CCN(C)CC4)cc3)nc2n1-c1cccc(C(C)(C)O)n1 [ADAVOSERTIB]

Activity [12]: < 65%
pIC50 [13]: 6.13
Activity [14]: < 65%
pIC50 [15]: 4.79
pIC50 [16]: 6.21
Activity [17]: < 65%
pIC50 [18]: 7.28
pIC50 [19]: 5.00
Activity [20]: < 65%
Structure (SMILES): Cn1cc(C2=C(c3cn(CCCSC(=N)N)c4ccccc34)C(=O)NC2=O)c2ccccc21 [BISINDOLYLMALEIMIDE IX]

Activity (TGF-beta receptor type-2 [32]): < 65%
Activity [33]: < 65%
Activity [34]: < 65%
Activity [35]: < 65%
pIC50 (TGF-beta receptor type-2 [36]): 6.81
Activity [37]: < 65%
Structure (SMILES): c1ccc2c(-c3cnn4cc(-c5ccc(N6CCNCC6)cc5)cnc34)ccnc2c1
